Data: patent US11986512B2, “Compositions and methods for cancer therapy” (Thetis Pharmaceuticals LLC, priority 2021, dated 2024)

Test system: KPC cells
Experiment: Orthotopic KPC model of pancreatic cancer, survival
Assay type: in vivo, C57BL/6J male mice
Description: To expand our understanding of less than daily (LTD) dosing of bis RvE1 Mg-di-lysinate as a cancer therapy that could be used in combination with chemotherapy, bis RvE1 Mg-di-lysinate (Compound 1) was investigated in the orthotopic KPC model of pancreatic cancer. A total of fifteen (15) C57BL/6J male mice were implanted orthotopically with 5×10e5 living KPC cells into the pancreas. The mice were randomized (n=7-8) to treatment with bis RvE1 Mg-di-lysinate (300 ug/kg, SC, Q6D) with or without gemcitabine (50 mg/kg, IP, Q3D, up to 6 doses) one day after tumor cell implantation.

Q: Which mean survival (bis RvE1 Mg-di-lysinate 300 ug/kg SC Q6D in combination with gemcitabine 50 mg/kg IP Q3D up to 6 doses) does the source give for `CC[C@@H](O)/C=C/C=C\C[C@@H](O)/C=C/C=C/C=C\[C@@H](O)CCCC(=O)O` [bis RvE1 Mg-di-lysinate] here?
A: Its mean survival is 129 days.

Q: What about the “mice alive as of the last observation (day 250)” value (bis RvE1 Mg-di-lysinate + gemcitabine combination group, three of the seven mice) of the same compound?
A: Its value is 43%.

Q: What about the “increase in survival, combination versus gemcitabine monotherapy” value (bis RvE1 Mg-di-lysinate + gemcitabine, p<0.05) of the same compound?
A: Its value is “four-fold increase in survival”.
